Experimental data published in patent US20240173347A1, “COMPOSITIONS FOR RAISING NAD LEVELS AND METHODS AND USES THEREOF” (ACCURI, LLC, priority 2022, published 2024).

Test system: intracellular NAD
Assay: Intracellular NAD levels in users before and after supplementation
Assay type: in vivo, human
Details: intravenous infusion, 5 sessions of 750 mg

NC(=O)c1ccc[n+]([C@@H]2O[C@H](COP(=O)([O-])OP(=O)(O)OC[C@H]3O[C@@H](n4cnc5c(N)ncnc54)[C@H](O)[C@@H]3O)[C@@H](O)[C@H]2O)c1 [NAD+, Nicotinamide adenine dinucleotide]
Effect on intracellular NAD levels: does not increase
